Measured values reported in patent US20260139017A1, “COMPOSITIONS AND METHODS USING REELIN IN ALZHEIMER'S DISEASE” (The General Hospital Corporation, priority 2022, published 2026).
Entries after “also recorded” stand apart in the source; their conditions may differ.

Columns and labels:
Format in all cases: binding
[1] = Heparin-sepharose affinity column chromatography, NaCl step gradient
Experimental: We tested changes in binding to heparin of RELN variants chromatographically using an optimized version of a protocol previously published by our laboratory (1). Briefly, after equilibration of the heparin column (BioVision 6554-1) at R.T., columns were washed with five volumes of degassed 20 mM TRIS-HCl buffer (pH 7.5). Recombinant C-terminus RELN peptides were produced and purified by Innovagen (Sweden): (WT) […](SEQ ID NO:56), and (H3447R) […](SEQ ID NO:53). One mL of 50 μg/mL peptide (H3447 or WT, and H3447R) was recycled through the column five times and the last flow through collected for further analysis. The column was washed five times with the same buffer and the protein eluted using a 0.05 M step gradient of NaCl in 20 mM Tris-HCl (0-1M, one mL per fraction). To ensure the complete release of the protein, the column was washed with five M NaCl 20 mM Tris-HCl. Three independent experiments were conducted for C-terminus RELN WT and H3447R. All eluted fractions were analyzed spectroscopically by reading the absorbance at 280 nm using Nanodrop 2000 Spectrophotometer. Blank corrected fractions were subsequently analyzed using GraphPad Prism 8.
To assess Reelin-heparin binding affinity, Reelin variants were run on a heparin column with steps of 0.05M in a range of 0.05-1M NaCl over 20 1 mL column volumes in 20 mM Tris HCl, as described in Arboleda et. al 2019 (2). Sample fractions were eluted at an increasing NaCl step size to determine the ionic strength needed to disrupt the binding between Reelin and heparin. Therefore, the stronger the interaction, the higher concentration of salt would be needed to disrupt the bond.

[2] = Bio-layer interferometry (BLI) of Fc-fusion CTR-RELN on heparin coated biosensor; conditions: Fc-fusion (short, furin-cleaved) CTR
Experimental: We used Fc-fusion Reelin CTR peptides since peptides alone would be smaller than the limit of detection in this experimental design. To assess heparin—Fc-Reelin interaction, the octet system (bio-layer interferometry) was used to assess heparin-protein kinetics. 50 μg/mL biotinylated heparin was immobilized on the biosensor tip surface for 300 sec on preconditioned biosensors. This was followed by quenching with biocytin at 50 μg/ml, baseline buffer diluent for 120 sec, 200 nM of analyte (Fc-fusion proteins) for 120 sec, and disassociation in assay buffer for 120 sec.
(§1) The experimental data were fit with the 1:1 binding model and analyzed with global fitting using Octet Data Analysis software to calculate KD.

NRP1 = target: T1, NRP1 (Homo sapiens, UniProt O14786); assay: Bio-layer interferometry (BLI) of CTR-RELN-NRP-1 interactions; conditions: Fc-fusion peptides
T1 construct: purchased R&D 3870-N1-025
T1 sequence (O14786 22-644 isoform O14786-2 limits assumed): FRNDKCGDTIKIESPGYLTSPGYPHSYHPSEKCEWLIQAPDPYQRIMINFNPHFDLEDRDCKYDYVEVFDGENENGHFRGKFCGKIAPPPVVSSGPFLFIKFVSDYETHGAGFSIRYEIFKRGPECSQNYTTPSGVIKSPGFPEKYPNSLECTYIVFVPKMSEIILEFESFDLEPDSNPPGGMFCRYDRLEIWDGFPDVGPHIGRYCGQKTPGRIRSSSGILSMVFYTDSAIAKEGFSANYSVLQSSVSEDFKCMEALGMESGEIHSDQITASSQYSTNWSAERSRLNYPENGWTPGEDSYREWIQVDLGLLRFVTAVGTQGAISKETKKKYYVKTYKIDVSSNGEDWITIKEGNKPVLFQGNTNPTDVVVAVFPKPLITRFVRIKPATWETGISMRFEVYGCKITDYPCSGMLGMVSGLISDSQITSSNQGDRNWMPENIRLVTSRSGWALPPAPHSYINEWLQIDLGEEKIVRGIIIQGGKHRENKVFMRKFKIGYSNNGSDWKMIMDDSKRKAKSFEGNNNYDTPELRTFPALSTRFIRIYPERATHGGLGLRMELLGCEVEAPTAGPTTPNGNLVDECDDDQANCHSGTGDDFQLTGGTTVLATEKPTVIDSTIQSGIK
Experimental: (§2) Bio-layer interferometry (BLI) was additionally used to assess NRP1-protein kinetics at 30° C. and 1000 rpm agitation. 1 mg/mL NRP1 (R&D 3870-N1-025) was biotinylated at a 1:2 molar ratio, desalted, and immobilized on the SA biosensor tip (Pall ForteBio) surface. This was followed by 1) 180 seconds baseline buffer diluent, 2) loading of the ligand (NRP1), 3) 180 seconds baseline buffer diluent, 4) 240 seconds association (analyte), and 5) 300 seconds disassociation in assay buffer. Assay buffer: SD Buffer (pH7.4 PBS, 0.05% tween20, 0.01% BSA).
as §1
as §2, with “was” for “was additionally”, “agitation using previously published methods.” for “agitation.”

affinity for NRP1 relative to WT (NRP1): 10 fold
Sequence: RKQNYMMNFSRQHGLRRFYNRRRRSLRRYP [CTR-RELN H3447R]
NaCl concentration of peak eluted fraction from heparin column ([1]; 0.05 M NaCl step gradient in 20 mM Tris HCl, UV 280 nm): 0.7 M NaCl | binding to and release from heparin column ([1]; affinity chromatography, NaCl gradient): bound to heparin; also recorded: required higher NaCl salt concentrations to be released | interaction/affinity with heparin relative to WT ([2]; listed as H3447R): ~2 fold | interaction/affinity with heparin relative to WT ([2]; listed as RELN H3447R): about 2 fold
